Reference: US12215078B2, “Compositions and methods for protein labeling, modification, analysis, and targeted delivery” (University of Massachusetts, priority 2018, dated 2025)
“Also recorded” adds a separate entry of the source.

Columns and labels:
[1] = Thiol-triggered declick of thiol/amine click products followed by NMR; assay type: physicochemical
Experimental: Typically, product of thiol-A1 or amine-A1 click product was dissolved in single or mixed deuterated solvents (the volume of solvent depends on the solubility of A1 The volume of solvent depends on the solubility of click product). Then, thiol was added to the solution. The reaction was immediately followed by NMR.
Compound 17: 10 μmol (1 eq.) of 17 was dissolved in 500 μL of MeOH-d4 and 500 μL of 50 mM pH6.8 phosphate buffer. Then, 80 μmol (8 eq.) of thiol was added to the solution. Final concentration of 17 is 10 mM.
Compound 18: 10 μmol (1 eq.) of 18 was dissolved in 500 μL of MeOH-d4 and 500 μL of 50 mM pH7.4 phosphate buffer. Then, 80 μmol (8 eq.) of thiol was added to the solution. Final concentration of 18 is 10 mM.
Compound 19: 10 μmol (1 eq.) of 19 was dissolved in 500 μL of MeOH-d4 and 500 μL of 50 mM pH7.4 phosphate buffer. Then, 10 μmol (0.5 eq.) of thiol was added to the solution. Final concentration of 19 is 10 mM.
Compound 20: 10 μmol (1 eq.) of 20 was dissolved in 1000 μL of MeOH-d4 and 500 μL of 50 mM pH7.4 phosphate buffer. Then, 10 μmol (0.5 eq.) of thiol was added to the solution. Final concentration of 20 is 6.67 mM.
Compound 21: 10 μmol (1 eq.) of 21 was dissolved in 500 μL of MeOH-d4 and 500 μL of 50 mM pH7.4 phosphate buffer. Then, 10 μmol (0.5 eq.) of thiol was added to the solution. Final concentration of 21 is 10 mM. […]

[2] = Thiol-click (click-to-release) kinetics followed by NMR; assay type: physicochemical; settings: for relative reactivity in thiol and amine addition reactions (in words): both thiol and amine addition (FIG. 2B-2C); for thiol-click reaction rate (in words): MeOH-d4, A1:thiol 2:1 (FIG. 2B)
Experimental: (§1) 10 μmol (2 eq.) of A1 molecules was dissolved in single or mixed deuterated solvents (the volume of solvent depends on the solubility of A1). Then, 5 μmol (1 eq.) of 2-(2-Methoxyethoxy) ethanethiol or benzylamine was added to the solution. The reaction was immediately followed by NMR. The final concentration of A1 for each molecule is shown at the end of supplementary information case by case. The conversion of thiol or amine was calculated from the integration of corresponding peaks by NMR and plotted against reaction time.
Compound 1, 2, 3, 4, 5, 8, 11, 12, 13: 10 μmol (2 eq.) of molecule 1, 2, 3, 4, 5, 8, 11, 12, 13 was dissolved in 1000 μL of MeOH-d4. Then, 5 μmol (1 eq.) of thiol was added to the solution. The reaction was immediately followed by NMR.
Compound 6, 7, 9: 10 μmol (2 eq.) of molecule 6, 7, 9 was dissolved in 500 μL of MeOH-d4 and 500 μL of 50 mM pH 7.4 phosphate buffer. Then, 5 μmol (1 eq.) of thiol or amine was added to the solution. The reaction was immediately followed by NMR.
Compound 10: 10 μmol (2 eq.) of molecule 10 was dissolved in 1000 μL of DMSO-d6 and 500 μL of 50 mM pH 7.4 phosphate buffer. Then, 5 μmol (1 eq.) of thiol or amine was added to the solution. The reaction was immediately followed by NMR.
Compound 14, 15, 16: 10 μmol (2 eq.) of molecule 14, 15, 16 was dissolved in dissolved in 500 μL of MeOH-d4 and 500 μL of 50 mM pH 6.2 phosphate buffer. Then, 5 μmol (1 eq.) of thiol or amine was added to the solution. The reaction was immediately followed by NMR.

[3] = Amine-click kinetics followed by NMR; assay type: physicochemical
Experimental: as §1
• Compound 1, 2, 3, 4, 5, 6, 7, 8, 9, 11, 12, 13: 10 μmol (2 eq.) of molecule 1, 2, 3, 4, 5, 6, 7, 8, 9, 11, 12, 13 was dissolved in 500 μL of MeOH-d4 and 500 μL of 50 mM pH 7.4 phosphate buffer. Then, 5 μmol (1 eq.) of benzylamine was added to the solution. The reaction was immediately followed by NMR.
Compound 10: 10 μmol (2 eq.) of molecule 10 was dissolved in 1000 μL of DMSO-d6 and 500 μL of 50 mM pH 7.4 phosphate buffer. Then, 5 μmol (1 eq.) of benzylamine was added to the solution. The reaction was immediately followed by NMR.
Compound 14, 15, 16: 10 μmol (2 eq.) of molecule 14, 15, 16 was dissolved in 800 μL of MeOH-d4 and 200 μL of 50 mM pH 7.4 phosphate buffer. Then, 5 μmol (1 eq.) of benzylamine was added to the solution. The reaction was immediately followed by NMR.

[4] = molecular target: T1, Myoglobin (Myo) (Equus caballus, UniProt P68082); experiment: Myoglobin reversible modification and biophysical characterization; assay type: biochemical
T1 construct: purchased
T1 sequence (P68082 whole entry): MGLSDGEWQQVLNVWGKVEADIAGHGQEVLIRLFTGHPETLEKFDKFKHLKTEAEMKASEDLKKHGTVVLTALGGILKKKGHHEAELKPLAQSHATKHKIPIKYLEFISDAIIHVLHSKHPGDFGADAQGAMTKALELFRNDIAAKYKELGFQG
Experimental: For Myoglobin (Myo) reversible modification reactions, the modified protein solution was prepared by reacting 100 μM of the Myo with 20 equivalents of 1 for 5 min in 50 mM pH 8.0 phosphate buffer at room temperature. The proteins were collected from HPLC purification from previous modification reactions, and the excess labeling reagents were removed from the reaction mixtures. The collected protein solution was characterized by ESI-MS or other biophysical characterizations such as Circular Dichroism (CD) and Ultraviolet-Visible Spectroscopy (UV-Vis). The same protein solution was also buffer-exchanged using 10K NMWL Amicon Ultra centrifugal filters (Millipore, Burlington, MA) with 50 mM pH 7.4 phosphate buffer to yield a 100 μM solution for further reverse reaction. […] After reverse modification reaction, the reaction mixture was injected to a LC-MS system for intact protein analyses. […]
Far-UV CD analyses were performed on a Jasco J-1500 spectropolarimeter. CD spectra were recorded at room temperature over a scan range of 260 to 200 nm. […]
Temperature dependent CD measurements were also performed for the protein samples to evaluate the thermal stability (melting temperature) of Myo before and after labeling. Ellipticity at 222 nm was recorded every 1° C. from 25° C. to 90° C. […] Samples were measured in triplicates and the results were shown in average values.

[5] = molecular target: T2, β-lactoglobulin B (βLGb) (Bos taurus, UniProt P02754); experiment: βLGb labeling, ESI-MS and MS/MS of digests; assay type: biochemical; settings: for modification sites / selectivity on βLGb: digest, MS/MS; for time until βLGb fully labelled: excess of reagent, disappearance of unmodified protein peaks in ESI-MS; for number of modifications in βLGb: mass shift, ESI-MS
T2 construct: purchased
T2 sequence (P02754 17-178): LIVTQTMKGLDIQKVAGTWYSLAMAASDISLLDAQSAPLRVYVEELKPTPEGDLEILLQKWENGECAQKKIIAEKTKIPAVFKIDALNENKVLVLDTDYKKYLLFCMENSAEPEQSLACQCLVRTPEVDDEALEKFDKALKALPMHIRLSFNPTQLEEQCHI
Experimental: For βLGb labeling reaction, βLGb was first denatured by 8 M of urea to expose the free cysteine. The denatured protein was then diluted with 50 mM pH 8.0 phosphate buffer, which results in a protein solution concentration of 100 μM. This protein solution was incubated with 20 equivalents of 1 for 5 min or with 20 equivalents of 8 for 40 min at room temperature to obtain the fully modified proteins respectively. After labeling, the reaction mixtures were injected immediately into an HPLC to remove excess labeling reagents and phosphate salts and then later analyzed by ESI-MS.
The labeled βLGb protein samples were first buffer-exchanged using 10K NMWL Amicon Ultra centrifugal filters (Millipore, Burlington, MA) with 100 mM triethylamine acetate (pH 8.0), and reconstituted with 1 M urea before enzymatic digestion. To reduce the disulfide bonds in βLGb, TCEP in water was added at a protein:TCEP molar ratio of 1:20, and the sample was incubated at room temperature for 10 min. To alkylate the reduced cysteines, iodoacetamide in water was added at a protein:iodoacetamide molar ratio of 1:80, and the sample was incubated in the dark at room temperature for 30 min. The denatured, reduced, and alkylated protein samples were then digested with trypsin at an enzyme: substrate ratio of 1:10. After 4 h of digestion at 37° C., the enzyme was separated from the mixture by centrifugation using a 10K NMWL Microcon filter (Millipore, Burlington, MA). The filtrate was then analyzed by LC-MS and LC-MS/MS.
To quench the labeling reaction and to remove excess labeling reagents and buffer salts, a Thermo Scientific Ultimate 3000 HPLC system (Thermo Scientific, Tewksbury, MA) with an OPTI-TRAP C4 reverse phase column (1×8 mm) was used. The protein was eluted using an acetonitrile gradient that increases from 1 to 99% over 12 min at a flow rate of 0.2 mL/min. The labeled protein was collected for proteolytic digestion or intact protein MS characterization.
Mass spectral analyses of the HPLC separated intact protein samples (Myo and βLGb) from the covalent labeling experiments were acquired on a Bruker AmaZon (Billerica, MA) quadrupole ion trap mass spectrometer equipped with an electrospray ionization source. The electrospray needle voltage was kept at 4 kV, and the capillary temperature was set to 250° C. Mass spectra of intact BCA protein samples were acquired on a Thermo Orbitrap Fusion Tribrid (Tewksbury, MA) mass spectrometer. The electrospray ionization source was typically operated at a needle voltage of 3800 V, and the ion transfer tube temperature was set to 325° C.
LC-MS and LC-MS/MS analyses of protein proteolytic fragments were conducted on a Thermo Orbitrap Fusion Tribrid (Tewksbury, MA) mass spectrometer. The electrospray ionization source was typically operated at a needle voltage of 2100 V, and the ion transfer tube temperature was set to 300° C. Tandem mass spectra were collected using CID with a normalized collision energy of 35%. Due to the large number of detectable peaks, an exclusion limit of 60 s was applied after five spectra had been collected for any given peak. The resolution of the Orbitrap was set to 60000.
Raw mass spectral data files were analyzed by Thermo Proteome Discoverer 2.2 software. Spectra were searched against the corresponding protein sequence. Variable modification by certain labeling reagents of the residues and the protein N-terminus was added as a dynamic modification. Other dynamic modifications such as oxidation of methionine and carboxyamidomethylation of cysteine were also used in the searches. Trypsin enzyme cleavage was selected, and a precursor mass tolerance of 10 ppm was used. Identifications of peptides and modifications at high confidence levels were used and were manually checked in all cases.

## C=C(CSCCOCCOC)C(=O)OC [Compound 17]
[1]; 8 equivalents of ethanethiol (T1), MeOH-d4 / 50 mM pH 6.8 phosphate buffer 1:1
  originally clicked T2 released in declick: 70%

## C=C(COC(=O)Nc1ccc([N+](=O)[O-])cc1)C(=O)NC [Compound 10]
[2]
  relative reactivity in thiol and amine addition reactions (in words): considerably slower than the corresponding acrylates

## C=C(C[n+]1ccccc1)C(=O)OC [Compound 4]
[2]
  thiol-click reaction rate (in words): much slower
[3]; pH maintained, deuterated MeOH/buffer mixed media (FIG. 2C)
  reactivity toward benzylamine (in words): higher than 5

## C=C(C[N+](CC)(CC)CC)C(=O)OC [Compound 1]
[2]; 1H NMR, 0.5 equivalent of thiol, 50 mM pH 7.4 phosphate buffer (FIG. 7)
  time for completion of reaction with the thiol: 3 min
[4]; 10 equivalents of thiol for 2 hours
  reversal of myoglobin modification by thiol: reversed to unmodified myoglobin
[4]; treated with 1, ESI-MS
  modifications on myoglobin: Multiple modifications
[5]
  modification sites / selectivity on βLGb: non-selective; also recorded: modifications of other nucleophilic residues including lysine, tyrosine and threonine
  time until βLGb fully labelled: ≤ 5 min
  number of modifications in βLGb: one to four
[3]; pH 7.4
  time for completion of reaction with benzylamine: ~50 min

## C=C(C[N+](CC)(CC)CC)C(=O)NC [Compound 8]
[2]
  relative reactivity in thiol and amine addition reactions (in words): considerably slower than the corresponding acrylates; also recorded: less reactive than ester 1
[5]
  modification sites / selectivity on βLGb: only the free cysteine site was modified
  time until βLGb fully labelled: ≤ 40 min
  number of modifications in βLGb: one

## C=C(CN(CC(=C)C(=O)OC)Cc1ccccc1)C(=O)OC [Compound 23]
[1]; 2 equivalents of T2, MeOH-d4 / 50 mM pH 7.4 phosphate buffer 2:1
  benzylamine (29) released in declick: More than 80%

## C=C(COC(C)=O)C(=O)NC [Compound 9]
[2]
  relative reactivity in thiol and amine addition reactions (in words): considerably slower than the corresponding acrylates

## C=C(C[n+]1ccc(N(C)C)cc1)C(=O)OC [Compound 5]
[2]
  thiol-click reaction rate (in words): much slower; also recorded: faster than 4
